11 compounds from article PMC7749107, “Identification and functional characterization of the first molluscan neuromedin U receptor in the slug, Deroceras reticulatum” (Scientific Reports, 2020) can be followed below.

“Also recorded” adds a separate entry of the source. Where two headings read alike, the source gives them in different places. Where a SMILES comes first, the peptide text is derived from it.

The target of assay [1] is T1, DretNmU-Rb (Deroceras reticulatum, UniProt A0A888YNJ5).
T1 sequence (A0A888YNJ5 1-502): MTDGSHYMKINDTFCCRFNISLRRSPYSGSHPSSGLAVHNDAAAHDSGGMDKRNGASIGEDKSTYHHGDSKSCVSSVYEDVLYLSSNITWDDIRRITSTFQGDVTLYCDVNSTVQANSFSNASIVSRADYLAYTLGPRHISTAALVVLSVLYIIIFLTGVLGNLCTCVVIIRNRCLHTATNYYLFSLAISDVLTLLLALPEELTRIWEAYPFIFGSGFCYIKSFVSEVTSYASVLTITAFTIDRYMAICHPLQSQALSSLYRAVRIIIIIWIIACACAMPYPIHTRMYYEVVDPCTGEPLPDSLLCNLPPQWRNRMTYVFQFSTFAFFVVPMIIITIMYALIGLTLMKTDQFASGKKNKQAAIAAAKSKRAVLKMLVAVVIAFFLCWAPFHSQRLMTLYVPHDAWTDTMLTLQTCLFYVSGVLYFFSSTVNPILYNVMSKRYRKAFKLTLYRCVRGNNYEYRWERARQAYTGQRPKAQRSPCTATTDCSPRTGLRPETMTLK
The assay can be described thus: Calcium mobilisation (FLIPR Calcium 6 fluorescence) receptor activation assay, Sf9 cells stably expressing DretNmU-Rb. It is filed as cell-based. As to conditions: for Binding activity (receptor response, ∆fluorescence) at single concentration: 500 nM peptide, three to four replicates, result in words. The procedure:
(§1) Sf9 cells were cultured in a 50 ml-Erlenmeyer flask while shaking at 145 rpm at 28 °C using Insectagro Sf9 Medium (Corning) supplemented with 5% heat-inactivated fetal bovine serum (HyClone, USA) and antibiotics (penicillin and streptomycin; Gibco). Three µg of either pIB/DretNmU-Ra or pIB/DretNmU-Rb plasmid was added to 100 μl of serum-free medium, and 15% CellFectin II (Invitrogen) in 100 μl serum-free medium was prepared, and both were placed at room temperature for 5 min. Samples were combined by pipetting and placed at room temperature for another 20 min. The plasmid-CellFectin II mixture was then added to a T-25 flask containing a layer of Sf9 cells covering about 70% of the surface, and incubated overnight. The next morning, the medium was replaced with fresh medium containing 50 μg/ml blasticidin. […] When culture was confluent, the recombinant cells were lifted and transferred to suspension cultures and grown until the exponential growth phase, and then stock cultures were frozen in liquid nitrogen. These frozen stock cell lines were thawed, cultivated for several passages in media containing 20 μg/ml blasticidin, and used for the ligand binding assays.
(§2) Two days before the binding assay, ~ 50,000 Sf9 cells expressing the DretNmU-Ra or -Rb from suspension cultures were dispensed into each well of a black 96-well plate (Corning C3603) and incubated at 28 °C overnight. At 48 h, cells were rinsed once with 100 μl of fresh medium without FBS. After removing the media, cells were incubated with 95 μl of 1 × FLIPR Calcium 6 reagent (Molecular Devices, USA) containing 2.5 mM probenecid at room temperature in the dark for 1 h. The Calcium 6 reagent-loaded cells were transferred to the Flexstation 3 multi-mode microplate reader (Molecular Devices) to measure fluorescence change (∆fluorescence) before and after loading 5 μl of peptide ligands (20×), detecting emission at 535 nm with excitation at 485 nm. Fluorescence measurements from each well on the column were taken every 5 s for 4 min. The peptide ligand was added by automatic pipettor once at 30 s from the beginning, and 5 μl of 5 μM ionomycin was added at 3 min to confirm calcium activity. Baseline fluorescence was determined by averaging 5 time points from each well prior to treatment with ligand and the resulting response was expressed as a percent increase in fluorescence relative to the baseline value.
(§3) For the initial screening and structure–activity tests, each cell line was exposed to a single concentration of 500 nM of each peptide or control. For the dosage-response assay, threefold serial dilutions of selected ligands with water were used, giving final ligand concentrations between 8 pM and 1.5 μM. The mean response from four wells receiving the same treatment in the same plate was regarded as one replicate, and at least three replicates from independent assays on different cell plates were analyzed. Data were transformed into a log scale and fit into the non-linear regression curve. EC50 values were obtained by statistical analysis using the sum of squares F-test function using GraphPad Prism version 8.0 (San Diego, CA, USA).
Background: A change in cytosolic calcium serves as a functional read-out for many receptors and channels.

Assay [2] has as its target T2, DretNmU-Ra (Deroceras reticulatum, UniProt A0A888YNE3).
T2 sequence (A0A888YNE3 1-505): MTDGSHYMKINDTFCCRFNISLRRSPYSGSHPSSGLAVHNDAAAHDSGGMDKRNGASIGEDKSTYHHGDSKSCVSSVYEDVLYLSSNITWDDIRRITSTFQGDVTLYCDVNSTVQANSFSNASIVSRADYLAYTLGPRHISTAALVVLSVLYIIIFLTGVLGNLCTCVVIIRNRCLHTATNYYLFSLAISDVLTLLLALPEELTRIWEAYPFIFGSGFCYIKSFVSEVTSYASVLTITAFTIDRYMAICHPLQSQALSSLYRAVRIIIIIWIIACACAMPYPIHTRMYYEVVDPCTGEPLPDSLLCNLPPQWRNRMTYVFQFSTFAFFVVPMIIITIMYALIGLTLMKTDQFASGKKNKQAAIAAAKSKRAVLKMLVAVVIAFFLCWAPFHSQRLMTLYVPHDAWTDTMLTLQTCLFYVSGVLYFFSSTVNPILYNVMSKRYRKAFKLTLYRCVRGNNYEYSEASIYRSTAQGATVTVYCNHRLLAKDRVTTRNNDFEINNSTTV
In words: Calcium mobilisation (FLIPR Calcium 6 fluorescence) receptor activation assay, Sf9 cells stably expressing DretNmU-Ra. The following applies: for Binding activity (receptor response, ∆fluorescence) at single concentration: 500 nM peptide, three to four replicates, result in words. Format: cell-based. On the procedure:
as §1, §2, §3

Assay [3] has as its system Deroceras reticulatum. In words: Injection bioassay of the peptides in the slug. Format: in vivo. As to conditions: n = 4; for Atypical behaviors after injection: 10 nmol peptide in 5 μl water injected into the foot, observed for initial 30 min, compared with water control; for Mortality after 3 days: 10 nmol peptide in 5 μl water injected into the foot of adult slugs, 18 °C. The procedure:
Two peptides, QPPLPRYa and QPPVPRYa, were dissolved in purified water to obtain a 2 mM concentration and individually injected into the adult slugs (270–520 mg in weight). A Hamilton syringe was used to inject a dose of 10 nmol peptide in 5 μl water or water only for control into the posterior part of the foot of the slug (n = 4). The foot was chosen as the injection site in order to avoid possible damage to internal organs, which are primarily located underneath the mantle. […] Since the treated slugs secreted a large amount of the defensive mucus, weight loss was assessed by weighing the slugs on a VWR B2-Series Analytical Balance immediately before the treatment and again 3 days later. Post treatment weights were obtained after slugs were placed under wet conditions (slugs placed in a ventilated 8 oz plastic container lined with damp tissue paper) or under dry conditions (same container type without damp tissue paper). Slugs were placed under these conditions approximately 30 min after injection. These plastic containers were maintained in a growth chamber (Thermo Scientific Precision Model 818) at 18 °C and 12 h photoperiod. Statistical analysis was performed by One-way ANOVA followed by Dunnett’s multiple comparisons test using GraphPad Prism version 8.0 (GraphPad Software, CA, USA).

[4] abbreviates: Sf9 cells stably expressing DretNmU-Rb.
Where [5] appears, read: Sf9 cells stably expressing DretNmU-Rb, calcium fluorescence, threefold serial dilutions 8 pM to 1.5 μM, four to five replicates from independent assays, each the mean of four wells, read-out: EC50, normalized concentration-response.
The mark [6] stands for this setting: Sf9 cells stably expressing DretNmU-Ra.
Where [7] appears, read: Sf9 cells stably expressing DretNmU-Ra, calcium fluorescence, threefold serial dilutions 8 pM to 1.5 μM, four to five replicates from independent assays, each the mean of four wells, read-out: EC50, normalized concentration-response.

As to `CC[C@H](C)[C@H](NC(=O)[C@H](CCCNC(=N)N)NC(=O)[C@@H]1CCCN1C(=O)[C@H](CCCNC(=N)N)NC(=O)[C@@H]1CCCN1C(=O)[C@@H](NC(=O)[C@H](C)N)C(C)C)C(N)=O` [AVPRPRIa] (H-AVPRPRI-NH2; N-terminus assumed), the “Binding activity (receptor response, ∆fluorescence) at single concentration” value (shortened to “Binding activity”) in assay [1] (setting [4]) and in assay [2] (setting [6]) was “evoked distinct binding” throughout. The EC50 in assay [1] (setting [5]) stood at 12.4 nM; in assay [2] (setting [7]), 6.4 nM.
As to `CC(C)C[C@H](NC(=O)[C@@H]1CCCN1C(=O)[C@@H]1CCCN1C(=O)[C@@H](N)CC(N)=O)C(=O)N1CCC[C@H]1C(=O)N[C@@H](CCCNC(=N)N)C(=O)N[C@@H](Cc1ccc(O)cc1)C(N)=O` [NPPLPRYa] (H-NPPLPRY-NH2; N-terminus assumed), the EC50 was 25.1 nM in assay [1] (setting [5]) and 32.2 nM in assay [2] (setting [7]).
For the compound `CC(C)C[C@H](NC(=O)[C@@H]1CCCN1C(=O)[C@@H]1CCCN1C(=O)[C@@H](N)CCC(N)=O)C(=O)N1CCC[C@H]1C(=O)N[C@@H](CCCNC(=N)N)C(=O)N[C@@H](Cc1ccccc1)C(N)=O` [QPPLPRFa] (H-QPPLPRF-NH2; N-terminus assumed), the “Binding activity” value in assay [1] (setting [4]) and in assay [2] (setting [6]) was “retained normal activity” each time. Also, the figures for the EC50 in assay [1] (setting [5]) and in assay [2] (setting [7]) were 128 nM and 55.1 nM, respectively.
Consider `CC(C)C[C@H](NC(=O)[C@@H]1CCCN1C(=O)[C@@H]1CCCN1C(=O)[C@@H](N)CCC(N)=O)C(=O)N1CCC[C@H]1C(=O)N[C@@H](CCCNC(=N)N)C(=O)N[C@@H](Cc1ccc(O)cc1)C(N)=O` [QPPLPRYa] (H-QPPLPRY-NH2; N-terminus assumed), for which the figures for the EC50 in assay [1] and in assay [2] were 4.1 nM and 1.4 nM, respectively. In addition, the “Binding activity” value in assay [1] (setting [4]) and in assay [2] (setting [6]) was “evoked distinct binding” throughout. Further, the “Atypical behaviors after injection” value in assay [3] is on record as “triggered a series of distinct, atypical behaviors”. Besides, the results for the “Mortality after 3 days” value in assay [3] (dry conditions) and in assay [3] (wet conditions) were 100% and 50%, respectively.
Consider `CC(C)[C@H](NC(=O)[C@@H]1CCCN1C(=O)[C@@H]1CCCN1C(=O)[C@@H](N)CCC(N)=O)C(=O)N1CCC[C@H]1C(=O)N[C@@H](CCCNC(=N)N)C(=O)N[C@@H](Cc1ccc(O)cc1)C(N)=O` [QPPVPRYa] (H-QPPVPRY-NH2), for which the values for the EC50 in assay [1] and in assay [2] were 12.7 nM and 6.4 nM, respectively. Moreover, the “Binding activity” value in assay [1] (setting [4]) and in assay [2] (setting [6]) was “evoked distinct binding” throughout. For the same compound, the “Atypical behaviors after injection” value in assay [3] was “triggered a series of distinct, atypical behaviors”. For the same compound, the “Mortality after 3 days” value worked out at 50% in assay [3] (dry conditions) and 0% in assay [3] (wet conditions).
“LPRYa [N-terminally truncated tetra-peptide of QPPLPRYa]”: the “Binding activity” value in assay [1] (setting [4]) and in assay [2] (setting [6]) was “all activity was lost” in each case.
Regarding “PLPRYa [N-terminally truncated pentapeptide of QPPLPRYa]”, the “Binding activity” value in assay [1] (setting [4]) and in assay [2] (setting [6]) was “gradual decrease of the binding ability” throughout.
“QPPLARYa [modified QPPLPRYa, alanine replacement of P5]”: the “Binding activity” value in assay [1] (setting [4]) and in assay [2] (setting [6]) was “almost completely disappeared” each time.
For “QPPLPAYa [modified QPPLPRYa, alanine replacement of R6]”, the “Binding activity” value in assay [1] (setting [4]) and in assay [2] (setting [6]) was “almost completely disappeared” each time.
As for “QPPLPRAa [modified QPPLPRYa, alanine replacement of Y7]”, the “Binding activity” value in assay [1] (setting [4]) and in assay [2] (setting [6]) was “almost completely disappeared” each time.
Regarding “QPPLPRWa [modified QPPLPRYa, C-terminal Y replaced with W]”, the “Binding activity” value in assay [1] (setting [4]) and in assay [2] (setting [6]) was “dramatically reduced in its binding activity; also recorded: activity was eliminated” throughout.
